Reference: patent US20130267476A1, “Pesticidal Active Mixtures Comprising Pyrazole Compounds” (BASF SE, priority 2010, published 2013)
“And” between values parts separate entries of the source, which are not always exact repeats. Identical values can stand only once. Like-named read-outs stand apart in the source and are kept apart here.

Tests used:
[1] = test system: vetch aphid (Megoura viciae); assay: Test 1—Control of Vetch Aphid (leaf disks, 24-well microtiter plates); format: in vivo; conditions: 5 days
Protocol: Test 1—Control of Vetch Aphid
For evaluating control of vetch aphid (Megoura viciae) through contact or systemic means the test unit consisted of 24-well-microtiter plates containing broad bean leaf disks.
The compounds or mixtures were formulated using a solution containing 75% water and 25% Dimethylsulfoxide (DMSO). Different concentrations of formulated compounds or mixtures were sprayed onto the leaf disks at 2.5 μl, using a custom built micro atomizer, at two replications.
(§1) For experimental mixtures in these tests identical volumes of both mixing partners at the desired concentrations respectively, were mixed together.
After application, the leaf disks were air-dried and 5-8 adult aphids placed on the leaf disks inside the microtiter plate wells. The aphids were then allowed to suck on the treated leaf disks and incubated at 23±1° C., 50±5% relative humidity (RH) for 5 days. Aphid mortality and fecundity was then visually assessed.

[2] = test system: green peach aphid (Myzus persicae); assay: Test 2—Control of Green Peach Aphid (artificial diet under membrane, systemic); format: in vivo; conditions: 3 days
Description: Test 2—Control of Green Peach Aphid
For evaluating control of green peach aphid (Myzus persicae) through systemic means the test unit consisted of 96-well-microtiter plates containing liquid artificial diet under an artificial membrane.
The compounds or mixtures were formulated using a solution containing 75% water and 25% DMSO. Different concentrations of formulated compounds or mixtures were pipetted into the aphid diet, using a custom built pipetter, at two replications.
as §1
After application, 5-8 adult aphids were placed on the artificial membrane inside the microtiter plate wells. The aphids were then allowed to suck on the treated aphid diet and incubated at 23±1° C., 50±5% RH for 3 days. Aphid mortality and fecundity was then visually assessed.

[3] = test system: boll weevil (Anthonomus grandis); assay: Test 3—Control of Boll Weevil (insect diet with eggs); format: in vivo; conditions: 5 days
Protocol: Test 3—Control of Boll Weevil
For evaluating control of boll weevil (Anthonomus grandis) the test unit consisted of 24-well-microtiter plates containing an insect diet and 20-30 A. grandis eggs.
The compounds or mixtures were formulated using a solution containing 75% water and 25% DMSO. Different concentrations of formulated compounds or mixtures were sprayed onto the insect diet at 20 μl, using a custom built micro atomizer, at two replications.
as §1
After application, microtiter plates were incubated at 23±1° C., 50±5% RH for 5 days. Egg and larval mortality was then visually assessed.

[4] = test system: Mediterranean fruitfly (Ceratitis capitata); assay: Test 4—Control of Mediterranean Fruitfly (insect diet with eggs); format: in vivo; conditions: 5 days
Protocol: Test 4—Control of Mediterranean Fruitfly
For evaluating control of Mediterranean fruitfly (Ceratitis capitata) the test unit consisted of 96-well-microtiter plates containing an insect diet and 50-80 C. capitata eggs.
The compounds or mixtures were formulated using a solution containing 75% water and 25% DMSO. Different concentrations of formulated compounds or mixtures were sprayed onto the insect diet at 5 μl, using a custom built micro atomizer, at two replications.
as §1
(§2) After application, microtiter plates were incubated at 28±1° C., 80±5% RH for 5 days. Egg and larval mortality was then visually assessed.

[5] = test system: tobacco budworm (Heliothis virescens); assay: Test 5—Control of Tobacco Budworm (insect diet with eggs); format: in vivo; conditions: 5 days
Protocol: Test 5—Control of Tobacco Budworm
For evaluating control of tobacco budworm (Heliothis virescens) the test unit consisted of 96-well-microtiter plates containing an insect diet and 15-25 H. virescens eggs.
The compounds or mixtures were formulated using a solution containing 75% water and 25% DMSO. Different concentrations of formulated compounds or mixtures were sprayed onto the insect diet at 10 μl, using a custom built micro atomizer, at two replications.
as §1, §2

Septoria tritici = assay: Test 9—Activity Against Leaf Blotch on Wheat Caused by Septoria tritici (microtest); format: cell-based; conditions: 7 days after inoculation
Description: (§3) The active compounds were formulated separately as a stock solution having a concentration of 10000 ppm in dimethyl sulfoxide.
(§4) The measured parameters were compared to the growth of the active compound-free control variant (100%) and the fungus-free and active compound-free blank value to determine the relative growth in % of the pathogens in the respective active compounds. These percentages were converted into efficacies.
Test 9—Activity Against Leaf Blotch on Wheat Caused by Septoria tritici
(§5) The stock solutions were mixed according to the ratio, pipetted onto a micro titer plate (MTP) and diluted with water to the stated concentrations. A spore suspension of SepCoria triticiin an aqueous biomalt solution was then added. The plates were placed in a water vapor-saturated chamber at a temperature of 18° C. Using an absorption photometer, the MTPs were measured at 405 nm 7 days after the inoculation.

Pyricularia oryzae = format: cell-based; conditions: 7 days after inoculation
Alternaria solani = assay: Test 8—Activity Against Early Blight on Tomatoes Caused by Alternaria solani (microtest); format: cell-based; conditions: 7 days after inoculation
Description: as §3, §4
Test 8—Activity Against Early Blight on Tomatoes Caused by Alternaria solani
as §5, with “Alternaria solani in” for “SepCoria triticiin”

Botrytis cinerea = assay: Test 6—Activity Against the Grey Mold Botrytis cinerea in the Microtiterplate Test; format: cell-based; conditions: 7 days after inoculation
Description: as §3, §4
Test 6—Activity Against the Grey Mold Botrytis cinerea in the Microtiterplate Test
as §5, with “Botrci cinerea in” for “SepCoria triticiin”

[6] = 0 + 10 ppm (second compound alone)
[7] = 0 + 0.4 ppm (second compound alone)
[8] = 0 + 0.08 ppm (second compound alone)
[9] = 2 + 0 ppm (first compound alone)
[10] = 10 + 0 ppm (first compound alone)
[11] = 50 + 0 ppm (first compound alone)
[12] = 0 + 2 ppm (second compound alone)
[13] = 0 + 20 ppm (second compound alone)

CNC(=O)c1cc(Cl)cc(C)c1NC(=O)c1cc(Br)nn1-c1ncccc1Cl [Chloranthraniliprole, chloranthraniliprole]
Average Control % [1, 6]: 25% | Average Control % [2, 7]: 0% | Average Control % [3, 7]: 25% | Average Control % [4, 6]: 0%

O=[N+]([O-])NC1=NCCN1Cc1ccc(Cl)nc1 [Imidacloprid, imidacloprid]
Average Control % ([1]; 0 + 0.016 ppm (second compound alone)): 0% | Average Control % [1, 8]: 0% | Average Control % [1, 7]: 25% | Average Control % [4, 6]: 0%

abamectin
Average Control % [1, 8]: 25%

CCOC(=O)OC1=C(c2cc(C)ccc2C)C(=O)N[C@]12CC[C@@H](OC)CC2 [Spirotetramat, spirotetramat]
Average Control % ([2]; 0 + 3.2 ppm (second compound alone)): 0% | Average Control % ([2]; 0 + 16 ppm (second compound alone)): 0%

Cc1c(C(=O)N(C)c2ccnnc2)cnn1CC(F)(F)F [I-76]
Average Control % [1, 9]: 0% | Average Control % [1, 10]: 0% | Average Control % [1, 11]: 0% | Average Control % ([2]; 0.4 + 0 ppm (first compound alone)): 0% | Average Control % [2, 9]: 0% | Average Control % [2, 11]: 50% | Average Control % [4, 10]: 0% | Average Control % [5, 11]: 0% | Observed efficacy % (Septoria tritici; 1 ppm): 11%

N#Cc1nn(-c2c(Cl)cc(C(F)(F)F)cc2Cl)c(N)c1[S+]([O-])C(F)(F)F (stereo not shown) [Fipronil, fipronil]
Average Control % [1, 12]: 0% | Average Control % [2, 12]: 0%

CN(C(=O)c1cnn(C)c1C(F)F)c1cccnc1 [I-17]
Average Control % [1, 9]: 0% | Observed efficacy % (Pyricularia oryzae; 63 ppm): 0% | Observed efficacy % (Alternaria solani; 63 ppm): 4%

N#CCNC(=O)c1cnccc1C(F)(F)F [Flonicamid, flonicamid]
Average Control % [1, 13]: 25% | Average Control % ([2]; 0 + 4 ppm (second compound alone)): 0% | Average Control % [3, 13]: 0%

CC1=NNC(=O)N(/N=C/c2cccnc2)C1 [Pymetrozine, pymetrozine]
Average Control % ([5]; 0 + 400 ppm (second compound alone)): 50%

COC(=O)N(OC)c1ccccc1COc1ccn(-c2ccc(Cl)cc2)n1 [Pyraclostrobin, methyl N-{2-[1-(4-chlorophenyl)-1H-pyrazol-3-yloxymethyl]phenyl}(N-methoxy)carbamate]
Observed efficacy % (Septoria tritici; 0.004 ppm): 46%

CON=C(C(=O)OC)c1ccccc1CON=C(C)c1cccc(C(F)(F)F)c1 [Trifloxystrobin, methyl (E)-methoxyimino-{(E)-α-[1-(α,α,α-trifluoro-mtolyl)ethylideneaminooxy]-o-tolyl}acetate]
Observed efficacy % (Septoria tritici; 0.016 ppm): 71%

CC(c1ccc(C(F)(F)F)nc1)S(C)(=O)=NC#N (stereo not shown) [Sulfoxaflor, sulfoxaflor]
Average Control % ([2]; 0 + 0.0064 ppm (second compound alone)): 0%

CN1COCN(Cc2cnc(Cl)s2)/C1=N\[N+](=O)[O-] [Thiamethoxam, thiamethoxam]
Average Control % [1, 12]: 25% | Average Control % [4, 6]: 25%

CC1(C)C(C=C(Cl)Cl)C1C(=O)OC(C#N)c1cccc(Oc2ccccc2)c1 (stereo not drawn) [α-cypermethrin, alpha-cypermethrin]
Average Control % [1, 7]: 25% | Average Control % [1, 12]: 0% | Average Control % [3, 7]: 25%

CC(C)(C)C(O)(CCc1ccc(Cl)cc1)Cn1cncn1 (stereo not shown) [Tebuconazole, 1-(4-chlorophenyl)-4,4-dimethyl-3-[1,2,4]triazol-1-ylmethylpentan-3-ol]
Observed efficacy % (Septoria tritici; 0.25 ppm): 57%

C[C@]1(COC(=O)CC2CC2)[C@@H]2C[C@H](OC(=O)CC3CC3)[C@@]3(C)Oc4cc(-c5cccnc5)oc(=O)c4[C@H](O)[C@@H]3[C@@]2(C)CC[C@@H]1OC(=O)CC1CC1 [A27.2]
Average Control % ([2]; 0 + 0.0008 ppm (second compound alone)): 0% | Average Control % ([2]; 0 + 0.004 ppm (second compound alone)): 50%

OC(Cc1ccccc1Cl)(Cn1nc[nH]c1=S)C1(Cl)CC1 (stereo not shown) [Prothioconazole, 2-[2-(1-chlorocyclopropyl)-3-(2-chlorophenyl)-2-hydroxypropyl]-2,4-dihydro[1,2,4]triazole-3-thione]
Observed efficacy % (Botrytis cinerea; 0.25 ppm): 45% | Observed efficacy % (Pyricularia oryzae; 0.25 ppm): 15% | Observed efficacy % (Alternaria solani; 0.25 ppm): 22%

Cc1c(C(=O)N(C)c2ccnnc2)cnn1C(C)C [I-52]
Average Control % [1, 10]: 50% and 25% | Average Control % ([2]; 0.08 + 0 ppm (first compound alone)): 0% | Average Control % [2, 9]: 25% and 50% | Average Control % [3, 9]: 0% | Average Control % [3, 10]: 0% | Average Control % [3, 11]: 0% | Average Control % [4, 11]: 0% | Observed efficacy % (Botrytis cinerea; 63 ppm): 4% | Observed efficacy % (Pyricularia oryzae; 63 ppm): 0% | Observed efficacy % (Alternaria solani; 63 ppm): 0% | Observed efficacy % (Septoria tritici; 4 ppm): 18% | Observed efficacy % (Septoria tritici; 16 ppm): 18%
